Assay results published in patent US6846496B1, “Treatment of osteoporosis” (Orion Corporation, priority 1999, dated 2005).
Where “and” joins values, the source holds several entries; their conditions need not be identical. Equal entries are not always repeated.

Test: Comparative clinical study: bone mineral density by dual-energy X-ray absorptiometry at vertebrae (L2-L4) and femoral neck
Assay type: in vivo, postmenopausal women
Conditions: 48 months; for increase in bone mineral density in the vertebrae (mean percentage change) / increase in bone mineral density in the femoral neck: all subjects; for increase in bone mineral density in the femoral neck (percentage change) / increase in bone mineral density in the vertebrae (mean change from baseline): osteopenic/osteoporotic subjects; for mean change from baseline in BMD in vertebrae: subjects with normal BMD at baseline
Description: The subjects used in the study were 419 postmenopausal women, aged 45 to 65 years. Eligible women had to be at least 3 years postmenopausal with normal gynecological findings, an intact uterus and a body mass index of 30 or less. Major medical exclusion criteria included endometrial hyperplasia and pathological mammography findings, prior hormone-dependent malignancies, severe thyroid diseases, and other criteria typical for HRT studies. Excessive smokers and alcohol abusers were excluded. Otherwise the women were not required to change their daily diet or other lifestyle habits for the study period.
Subjects were randomly assigned to six treatment groups to receive one tablet daily containing one of the following dose combinations: 1 mg or 2 mg of estradiolvalerate (E2V) combined to 2.5 mg or 5 mg of medroxyprogestrone acetate (MPA) (Indivina®, Orion Corporation, Espoo, Finland).
Groups changing from 1 mg E2V to 2 mg E2V irrespective of the MPA (Group I and II) were pooled together. Groups receiving 1 mg of E2V throughout the study irrespective of the MPA dose (Group V and VI) were pooled together. Also groups receiving 2 mg of E2V throughout the study irrespective of the MPA dose (Group III and IV) were pooled together. Pooling was considered justified since MPA is not expected to affect the response of estrogen on bone mineral density (BMD).
The bone mineral densities at the vertebrae and the hip were measured using dual-energy X-ray absorptiometry (DPX) at baseline, 6-, 12-, 24, 36- and 48-month follow-up visits, and at premature discontinuation. The BMD from the hip was measured by three separate measurements at the femur neck, Ward's triangle, major trochanter and BMD from the vertebrae was measured at L2-L4. In addition, the area and bone mineral content (BMC) of vertebrae L2-L4 were determined.
Results were further analysed to compare the effect varying dosages on BMD in groups that had either normal, osteopenic or osteoporotic BMD value at baseline. Subjects were classified as osteopenic if the BMD was 0.90 to 1.08 g/cm^2 in vertebrae (L2-L4) and 0.68 to 0.86 g/cm^2 in femoral neck (corresponds to T score between −1 and −2.5 in Finnish population). BMD was regarded as normal if the values were above 1.08 g/cm^2 in vertebrae and above 0.86 g/cm^2 in femoral neck. Values below 0.90 g/cm^2 in vertebrae and below 0.68 /cm^2 in femoral neck were considered as osteoporotic.

[1] = daily 1 mg E2V first 6 months then 2 mg E2V

CCCCC(=O)O[C@H]1CC[C@H]2[C@@H]3CCc4cc(O)ccc4[C@H]3CC[C@]12C [E2V, estradiol valerate]
increase in bone mineral density in the vertebrae (mean percentage change) (daily 1 mg E2V first 6 months then 2 mg E2V (Groups I+II pooled, with MPA)): 8.9% | increase in bone mineral density in the femoral neck [1]: 4.2% and 4.3% | increase in bone mineral density in the vertebrae (mean percentage change) (daily 1 mg E2V whole term (Groups V+VI pooled, with MPA)): 6.2% | increase in bone mineral density in the femoral neck (daily 1 mg E2V whole term): 2.9% | increase in bone mineral density in the vertebrae (mean percentage change) (daily 2 mg E2V whole term (Groups III+IV pooled, with MPA)): 7.4% | increase in bone mineral density in the femoral neck (daily 2 mg E2V whole term): 2.9% | increase in bone mineral density in the femoral neck (percentage change) [1]: 6.4% | increase in bone mineral density in the vertebrae (mean change from baseline) [1]: 9.4% | increase in bone mineral density in the femoral neck (percentage change) (daily 1 mg E2V whole term): 3.8% | increase in bone mineral density in the vertebrae (mean change from baseline) (daily 1 mg E2V whole term): 7.7% | increase in bone mineral density in the femoral neck (percentage change) (daily 2 mg E2V whole term): 3.5% | increase in bone mineral density in the vertebrae (mean change from baseline) (daily 2 mg E2V whole term): 7.3% | mean change from baseline in BMD in vertebrae [1]: 8.3% | mean change from baseline in BMD in vertebrae (daily 1 mg E2V whole term): 4.7% | mean change from baseline in BMD in vertebrae (daily 2 mg E2V whole term): 7.5%
